Laboratory results: ChEMBL document CHEMBL6074636, “Design and activity evaluation of new EGFR tyrosine kinase inhibitors containing cyclic polyamines” (Bioorg Med Chem Lett, 2024)
The source made the active and inactive calls. The calls are words filed in the database; no cut-off is given here.

Tests used:
NCI-H1975 = assay: cells; assay type: functional, cell-based; conditions: Homo sapiens, NCI-H1975, 48 h
Description: Antiproliferative activity against human NCI-H1975 cells assessed as inhibition of cell growth incubated for 48 hrs by CCK assay

A549 = assay: cells; assay type: functional, cell-based; conditions: Homo sapiens, A549, 48 h
Description: Antiproliferative activity against human A549 cells expressing wild type EGFR assessed as inhibition of cell growth incubated for 48 hrs by CCK assay

PC-9 [1] = assay: cells; assay type: functional, cell-based; conditions: Homo sapiens, PC-9, 48 h
Description: Antiproliferative activity against human PC-9 cells assessed as inhibition of cell growth incubated for 48 hrs by CCK assay

PC-9 [2] = assay: cells; assay type: functional, cell-based; conditions: Homo sapiens, PC-9, 48 h; remark: listed apart in the source
Description: Antiproliferative activity against human PC-9 cells expressing EGFR del19/T790M/C797S triple mutant assessed as inhibition of cell growth incubated for 48 hrs by CCK assay

[3] = biological target: Epidermal growth factor receptor (Homo sapiens, UniProt P00533, EX19DEL); assay: Inhibition of EGFR del19 mutant (unknown origin)
[4] = biological target: Epidermal growth factor receptor (Homo sapiens, UniProt P00533, C797S/L858R/T790M); assay: Inhibition of EGFR L858R/T790M/C797S triple mutant (unknown origin)
[5] = Selectivity index, ratio of IC50 for cytotoxicity against human BEAS-2B cells assessed as inhibition of cell growth to IC50 for antiproliferative activity against human PC-9 cells expressing EGFR del19/T790M/C797S triple mutant assessed as inhibition of cell growth; assay type: toxicity, cell-based; conditions: read-out: Ratio IC50
PC-9 [6] = assay: Inhibition of colony formation in human PC-9 cells expressing EGFR del19/T790M/C797S triple mutant at 100 nM; assay type: functional, cell-based
[7] = Cytotoxicity against human BEAS-2B cells assessed as inhibition of cell growth incubated for 48 hrs by CCK-8 assay; assay type: toxicity, cell-based
PC-9 [8] = assay: Inhibition of colony formation in human PC-9 cells expressing EGFR del19/T790M/C797S triple mutant at 1 uM; assay type: functional, cell-based
PC-9 [9] = assay: Antiproliferative activity against human PC-9 cells expressing EGFR del19/T790M/C797S triple mutant assessed as reduction in cell proliferation at 100 to 500 nM incubated for 48 hrs Edu staining based analysis; assay type: functional; conditions: dose 100-500 nM
PC-9 [10] = assay: Inhibition of cell migration in human PC-9 cells expressing EGFR del19/T790M/C797S triple mutant at 1 uM incubated for 48 hrs by transwell assay; assay type: functional, cell-based

Chain of Epidermal growth factor receptor (Homo sapiens, UniProt P00533, C797S/L858R/T790M) (P00533 25-1210 T790M/C797S/L858R limits assumed): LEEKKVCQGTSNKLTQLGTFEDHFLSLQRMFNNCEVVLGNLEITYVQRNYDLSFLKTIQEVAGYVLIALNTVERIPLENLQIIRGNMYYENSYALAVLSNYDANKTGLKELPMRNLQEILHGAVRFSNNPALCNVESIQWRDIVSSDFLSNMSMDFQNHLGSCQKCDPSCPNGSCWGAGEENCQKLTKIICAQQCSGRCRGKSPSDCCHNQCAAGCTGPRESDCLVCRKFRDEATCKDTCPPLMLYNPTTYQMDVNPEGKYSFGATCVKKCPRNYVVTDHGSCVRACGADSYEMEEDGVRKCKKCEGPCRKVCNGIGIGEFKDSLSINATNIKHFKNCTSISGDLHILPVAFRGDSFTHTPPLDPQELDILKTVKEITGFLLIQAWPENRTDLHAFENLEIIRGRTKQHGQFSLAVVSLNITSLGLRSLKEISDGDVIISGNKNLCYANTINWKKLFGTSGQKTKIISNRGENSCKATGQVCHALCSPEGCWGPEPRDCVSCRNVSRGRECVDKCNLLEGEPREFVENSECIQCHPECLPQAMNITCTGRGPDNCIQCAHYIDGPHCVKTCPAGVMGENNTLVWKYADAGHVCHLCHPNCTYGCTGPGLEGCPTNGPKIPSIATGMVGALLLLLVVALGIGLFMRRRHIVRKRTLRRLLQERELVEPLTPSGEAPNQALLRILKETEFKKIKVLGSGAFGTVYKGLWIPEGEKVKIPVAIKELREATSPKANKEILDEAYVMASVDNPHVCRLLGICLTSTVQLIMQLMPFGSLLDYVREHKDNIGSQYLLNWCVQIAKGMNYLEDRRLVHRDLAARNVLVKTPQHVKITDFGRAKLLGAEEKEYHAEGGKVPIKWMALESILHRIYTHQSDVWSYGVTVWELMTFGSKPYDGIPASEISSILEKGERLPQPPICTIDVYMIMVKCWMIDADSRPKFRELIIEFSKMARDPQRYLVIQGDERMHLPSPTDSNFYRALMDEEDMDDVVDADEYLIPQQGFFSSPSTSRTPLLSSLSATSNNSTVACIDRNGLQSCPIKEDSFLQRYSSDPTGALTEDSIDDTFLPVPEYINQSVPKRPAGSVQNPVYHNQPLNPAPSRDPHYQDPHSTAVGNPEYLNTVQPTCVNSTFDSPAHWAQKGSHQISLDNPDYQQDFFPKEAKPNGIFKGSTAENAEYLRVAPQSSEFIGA
Chain of Epidermal growth factor receptor (Homo sapiens, UniProt P00533, EX19DEL) (P00533 whole entry, looked up, stated change not applied): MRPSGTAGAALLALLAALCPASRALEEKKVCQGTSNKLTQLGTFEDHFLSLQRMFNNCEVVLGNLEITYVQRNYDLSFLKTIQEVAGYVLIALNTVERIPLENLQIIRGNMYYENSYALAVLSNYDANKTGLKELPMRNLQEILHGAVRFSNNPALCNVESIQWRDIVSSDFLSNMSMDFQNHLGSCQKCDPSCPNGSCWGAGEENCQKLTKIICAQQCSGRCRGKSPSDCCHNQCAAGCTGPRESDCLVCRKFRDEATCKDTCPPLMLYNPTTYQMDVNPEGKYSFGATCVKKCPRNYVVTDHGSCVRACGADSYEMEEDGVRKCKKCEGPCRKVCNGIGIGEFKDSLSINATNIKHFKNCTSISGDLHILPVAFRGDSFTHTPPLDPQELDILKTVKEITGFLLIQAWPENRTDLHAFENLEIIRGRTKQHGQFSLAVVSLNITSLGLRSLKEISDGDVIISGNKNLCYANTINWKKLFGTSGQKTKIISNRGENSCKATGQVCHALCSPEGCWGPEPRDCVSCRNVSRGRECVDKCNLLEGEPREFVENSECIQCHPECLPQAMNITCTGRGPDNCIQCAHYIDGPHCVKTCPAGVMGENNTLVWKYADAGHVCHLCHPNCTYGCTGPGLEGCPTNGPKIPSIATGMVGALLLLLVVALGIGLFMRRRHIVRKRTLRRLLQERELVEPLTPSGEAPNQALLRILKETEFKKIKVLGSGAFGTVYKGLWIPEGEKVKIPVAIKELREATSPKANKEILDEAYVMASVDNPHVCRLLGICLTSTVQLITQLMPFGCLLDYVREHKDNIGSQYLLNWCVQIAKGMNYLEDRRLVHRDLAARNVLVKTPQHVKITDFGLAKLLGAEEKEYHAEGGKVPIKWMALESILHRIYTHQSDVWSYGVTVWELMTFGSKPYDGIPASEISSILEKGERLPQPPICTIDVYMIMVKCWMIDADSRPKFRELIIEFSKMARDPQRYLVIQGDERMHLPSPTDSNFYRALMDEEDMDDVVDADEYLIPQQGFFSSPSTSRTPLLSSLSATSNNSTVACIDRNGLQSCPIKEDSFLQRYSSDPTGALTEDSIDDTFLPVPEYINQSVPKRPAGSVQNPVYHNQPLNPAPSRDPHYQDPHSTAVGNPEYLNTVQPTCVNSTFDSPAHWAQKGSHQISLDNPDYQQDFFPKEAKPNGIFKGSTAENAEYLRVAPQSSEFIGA

Row | SMILES | IC50 (NCI-H1975) [µM] | IC50 (A549) [µM] | IC50 (PC-9 [1]) [µM] | IC50 (PC-9 [2]) [µM] | IC50 [3] [µM] | IC50 [4] [µM] | selectivity ratio [5] | inhibition (PC-9 [6]) | IC50 at 48 h [7] [µM] | inhibition (PC-9 [8]) | Activity (PC-9 [9]) | inhibition (PC-9 [10])
1 | O=C(O)CN1CCN(CC(=O)O)CC(=O)Nc2cc3c(Nc4cccc(Cl)c4)ncnc3cc2NC(=O)C1 | 23.3 | 2.26 | 30.7 | 84 |  |  |  |  |  |  |  | 
2 | O=C(O)CN1CCN(CC(=O)O)CC(=O)Nc2cc3c(Nc4cccc(Br)c4)ncnc3cc2NC(=O)C1 | 4.41 | > 100 | 31.6 | 3.6 |  |  |  |  |  |  |  | 
3 | O=C1CNCCNCC(=O)Nc2cc3c(Nc4ccc(F)c(Cl)c4)ncnc3cc2N1 | 4.43 | 1.38 | 12.5 | 4.61 | > 1000 | > 1000 |  |  |  |  |  | 
4 | O=C(O)CN1CCN(CC(=O)O)CC(=O)Nc2cc3c(Nc4cccc(F)c4)ncnc3cc2NC(=O)C1 | 1.41 | 0.946 | 1.13 | 0.496 | 0.136 | 0.161 | 34.7 | Active | 17.2 | Active | Active | Active
5 | C#Cc1cccc(Nc2ncnc3cc4c(cc23)OCCOCCOCCO4)c1 [ICOTINIB] | 5.75 | 56 | 1.53 | 1.26 |  |  |  |  |  |  |  | 
6 | O=C(O)CN1CCN(CC(=O)O)CC(=O)Nc2cc3c(Nc4ccc(F)c(Cl)c4)ncnc3cc2NC(=O)C1 | 18.9 | > 100 | 7.87 | 13.2 |  |  |  |  |  |  |  | 
7 | O=C(O)CN1CCN(CC(=O)O)CC(=O)Nc2cc3c(Nc4ccc(Cl)cc4Cl)ncnc3cc2NC(=O)C1 | 4.54 | > 100 | 1.66 | 11 |  |  |  |  |  |  |  | 
8 | O=C(O)CN1CCN(CC(=O)O)CC(=O)Nc2cc3c(Nc4ccc(OCc5cccc(F)c5)c(Cl)c4)ncnc3cc2NC(=O)C1 | 2.49 | 4.02 | 6.57 | 1.09 | 0.18 | 0.22 |  |  |  |  |  | 
9 | O=C(O)CN1CCN(CC(=O)O)CC(=O)Nc2cc3c(Nc4ccc(Br)cc4F)ncnc3cc2NC(=O)C1 | 3.44 | 7.78 | 2.7 | 0.767 | 0.161 | 0.251 |  |  |  |  |  | 
10 | COc1cccc(Nc2ncnc3cc4c(cc23)NC(=O)CN(CC(=O)O)CCN(CC(=O)O)CC(=O)N4)c1 | 3.04 | 35.1 | 12.3 | 6.7 |  |  |  |  |  |  |  | 
11 | CCc1cc(Br)ccc1Nc1ncnc2cc3c(cc12)NC(=O)CN(CC(=O)O)CCN(CC(=O)O)CC(=O)N3 | 4.85 | 3.32 | 49.3 | 3.43 |  |  |  |  |  |  |  | 
12 | O=C(O)CN1CCN(CC(=O)O)CC(=O)Nc2cc3c(Nc4ccccc4)ncnc3cc2NC(=O)C1 | 3.91 | 3.91 | 32.9 | 14.2 |  |  |  |  |  |  |  | 
13 | CCc1cccc(Nc2ncnc3cc4c(cc23)NC(=O)CN(CC(=O)O)CCN(CC(=O)O)CC(=O)N4)c1 | 8.11 | > 100 | 10.2 | 1.52 | 0.378 | 0.321 |  |  |  |  |  | 
14 | C=CC(=O)Nc1cc(Nc2nccc(-c3cn(C)c4ccccc34)n2)c(OC)cc1N(C)CCN(C)C [OSIMERTINIB] | […] | 0.637 | 0.08 | 0.912 |  |  |  |  | 20.1 |  |  | 
